Results reported in PMC10535842, “Novel Thiazole-Based SIRT2 Inhibitors Discovered via Molecular Modelling Studies and Enzymatic Assays” (Pharmaceuticals, 2023).
Where “and” joins values, the source holds several entries; their conditions need not be identical. Equal entries are not always repeated. Entries after “also recorded” stand apart in the source; their conditions may differ.

System: SIRT2
Test: not given
Details: substrate RHKK(Ac)-AMC; read-out: SIRT2 IC50 (series B, compounds 27-111); cited from earlier work

Row | Structure (SMILES) | IC50
1 | COc1ccc2ccccc2c1Cn1cnc2sc(CCNCc3ccncc3)c(C)c2c1=O [Compound 110] | 2.93 µM
2 | COc1ccc2ccccc2c1Cn1cnc2sc(CCNC3CCOCC3)c(C)c2c1=O [Compound 111] | 8.15 µM

System: SIRT2
Test: not given
Details: substrate ZMAL; read-out: SIRT2 IC50 (series A, compounds 1-26); cited from earlier work

Row | Structure (SMILES) | IC50
3 | Cc1cccc(Cc2cnc(NC(=O)CSc3nc(C)cc(C)n3)s2)c1 [Compound 3] | 1.64 µM
4 | Cc1cc(C)nc(SCC(=O)Nc2ncc(Cc3ccc(Cl)cc3)s2)n1 [Compound 4] | 3.4 µM
5 | CCOc1cccc(Cc2cnc(NC(=O)CSc3nc(C)cc(C)n3)s2)c1 [Compound 5] | 1.33 µM
6 | Cc1cc(C)nc(SCC(=O)Nc2ncc(Cc3ccc(-c4ccccc4)cc3)s2)n1 [Compound 6] | 164 µM and > 167 µM
7 | O=C(CSc1cccc(O)c1)Nc1ncc(Cc2cccc3ccccc23)s1 [Compound 7] | 143 µM
8 | Cc1cc(C)cc(SCC(=O)Nc2ncc(Cc3cccc4ccccc34)s2)c1 [Compound 8] | 207 µM and > 167 µM
9 | Cc1cc(C)nc(SCC(=O)Nc2ncc(C(=O)Nc3cccc4ccccc34)s2)n1 [Compound 9] | 33 µM
10 | Cc1cc(C)nc(SC(C)C(=O)Nc2ncc(Cc3cccc4ccccc34)s2)n1 (stereo not shown) [Compound 12] | 9.77 µM
11 | Cc1cc(C)nc(SC(C)C(=O)Nc2ncc(Cc3cccc4ccccc34)s2)n1 (stereo not shown) [Compound 13] | 0.26 µM
12 | Cc1cc(C)nc(SCC(=O)Nc2ncc(Cc3c(C)ccc4ccccc34)s2)n1 [Compound 14] | 0.31 µM
13 | Cc1cc(C)nc(SCC(=O)Nc2ncc(Cc3cccc4ccc(Br)cc34)s2)n1 [Compound 15] | 0.21 µM
14 | Cc1cc(C)nc(SCC(=O)Nc2ncc(Cc3cccc4cc(Cl)ccc34)s2)n1 [Compound 16] | 0.48 µM
15 | O=C(CSc1ncccn1)Nc1ncc(Cc2cccc3ccccc23)s1 [Compound 17] | 2.34 µM and 2.34 to 16.8 µM
16 | CCc1cc(CC)nc(SCC(=O)Nc2ncc(Cc3cccc4ccccc34)s2)n1 [Compound 18] | 45.6 µM
17 | Cc1nc(SCC(=O)Nc2ncc(Cc3cccc4ccccc34)s2)nc(C)c1C [Compound 19] | 15 µM
18 | CCCc1cc(O)nc(SCC(=O)Nc2ncc(Cc3cccc4ccccc34)s2)n1 [Compound 21] | 127 µM
19 | Cc1cc(C)nc(SCC(=O)Nc2nnc(Cc3ccc(Cl)cc3)s2)n1 [Compound 23] | 30.9 µM
20 | Cc1cc(C)nc(SCC(=O)Nc2nnc(Cc3ccc(Br)cc3)s2)n1 [Compound 24] | 168 µM
21 | Cc1cc(C)nc(SCC(=O)Nc2nnc(Cc3cccc4ccccc34)s2)n1 [Compound 25] | 1.89 µM
22 | CCOc1ccc2nc(NC(=O)CSc3nc(C)cc(C)n3)sc2c1 [Compound 26] | 207 µM and > 167 µM

System: SIRT2
Test: not given
Details: HPLC assay, H3K9Ac; read-out: SIRT2 IC50 (series C, compounds 112-116); cited from earlier work

Row | Structure (SMILES) | IC50
23 | O=C(On1nnc2ccccc21)c1cc[nH]c1 [Compound 112] | 56.6 µM
24 | O=C(On1nnc2ccccc21)c1ccc[nH]1 [Compound 113] | 42.7 µM
25 | Cc1ccc2[nH]cc(C(=O)On3nnc4ccccc43)c2c1 [Compound 115] | 74 µM
26 | O=C(On1nnc2ncccc21)c1c[nH]c2ccc(Br)cc12 [Compound 116] | 77.1 µM

Molecular target: T1, recombinant SIRT2 (Homo sapiens, UniProt Q8IXJ6)
T1 sequence (Q8IXJ6 1-389): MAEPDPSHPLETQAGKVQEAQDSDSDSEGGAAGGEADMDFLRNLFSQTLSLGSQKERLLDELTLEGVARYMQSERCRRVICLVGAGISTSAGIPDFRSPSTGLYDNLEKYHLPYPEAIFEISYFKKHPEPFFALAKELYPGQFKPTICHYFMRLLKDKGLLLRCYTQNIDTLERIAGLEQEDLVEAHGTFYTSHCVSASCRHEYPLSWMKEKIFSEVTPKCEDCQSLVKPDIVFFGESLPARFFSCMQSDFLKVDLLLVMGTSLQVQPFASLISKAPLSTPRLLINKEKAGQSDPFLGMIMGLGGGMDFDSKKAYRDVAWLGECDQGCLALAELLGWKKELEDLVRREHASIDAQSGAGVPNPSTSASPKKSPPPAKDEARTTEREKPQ
Test: SIRT2 deacetylase activity, recombinant SIRT2 incubated with acetylated peptide H3K9Ac and NAD+
Type: biochemical
Details: 150 μM; recombinant protein
Procedure: The effect of the in silico screened compounds on the SIRT2 deacetylase activity was evaluated thanks to the incubation of recombinant SIRT2 with an acetylated peptide (H3K9Ac, a peptide acetylated on Lys 9) and NAD^+.

Row | Structure (SMILES) | inhibition at 150 µM | % Inhibition SIRT2 (at 150 μM)
27 | CSc1cccc(Nc2nc(-c3nc4ccccc4s3)cs2)c1 [Compound 1a] | 72 ± 8% | 
28 | CCc1ccc(Nc2nc(-c3ccc(Cl)cc3)cs2)cc1SC [Compound 2a] | > 90% | 100 ± 9%
29 | CSc1cccc(Nc2nc(-c3cccc(Cl)c3)cs2)c1 [Compound 3a] | 60 ± 8% | 
30 | CSc1cccc(Nc2nc(-c3ccc4c(c3)CC(=O)N4)cs2)c1 [Compound 4a] | 60 ± 5% | 
31 | CSc1cccc(Nc2nc(-c3ccc4[nH]c(=O)sc4c3)cs2)c1 [Compound 5a] | 76 ± 9% | 
32 | O=C1Cc2cc(-c3csc(Nc4cccc(SC(F)(F)F)c4)n3)ccc2N1 [Compound 6a] | > 90% | 92 ± 7%
33 | CCn1c(=O)/c(=C2\Sc3ccccc3N2C)s/c1=C\c1ccccn1 [Compound 7a, YM-08] | > 90% | 93 ± 9%
34 | Cc1cc(C)nc(SCC(=O)Nc2ncc(Cc3cccc4ccccc34)s2)n1 [Compound 10, SirReal2] | 100 ± 5% | 

Same assay, conditions: recombinant protein

Row | Structure (SMILES) | IC50
35 | CSc1cccc(Nc2nc(-c3nc4ccccc4s3)cs2)c1 [Compound 1a] | 45.1 ± 5 µM
36 | CCc1ccc(Nc2nc(-c3ccc(Cl)cc3)cs2)cc1SC [Compound 2a] | 17.3 ± 2 µM
37 | O=C1Cc2cc(-c3csc(Nc4cccc(SC(F)(F)F)c4)n3)ccc2N1 [Compound 6a] | 27.3 ± 4.7 µM
38 | CCn1c(=O)/c(=C2\Sc3ccccc3N2C)s/c1=C\c1ccccn1 [Compound 7a, YM-08] | 19.9 ± 2.1 µM

Molecular target: T2, recombinant human HSP70 (Homo sapiens, UniProt P0DMV8)
T2 construct: made in house; host or cells: E. coli BL21 (DE3)
Test: HSP70 ATPase catalytic activity, Malachite green assay
Type: biochemical
Details: 300 μM final concentration; read-out: percentage of inhibition of HSP70 ATPase activity
Procedure: The impact of selected molecules on the ATPase catalytic activity of an in-house produced recombinant human HSP70 protein was determined using the Malachite green assay, incubating the recombinant protein with ATP in the presence or absence of different compounds (300 μM final concentration). The percentage of inhibition exerted by the selected compounds on the ATPase activity was as follow: 1a, 49 ± 2%; 2a, 40 ± 1%; 3a, 44 ± 4%; 4a, 20 ± 1%; 5a, 19 ± 1%; 6a, 37 ± 1%; 7a, 47 ± 1%.
The recombinant human Hsp70 protein was produced in BL21 (DE3) E. coli transformed with the pET-6xHis/hHSP70 plasmid containing the coding sequence for human HSP70 (hHSPA1A gene, NM_005345.6; purchased from Vector Builder, Vector ID VB210930). This vector allowed for producing an N-terminal 6xHis tag fusion HSP70 protein.
BL21 cells containing the vector were initially grown in Luria−Bertani medium at 37 °C (Merck, Milan, Italy) with 200 μg/mL ampicillin until the culture reached an OD600 of 0.5. The 6xHis/hHSP70 fusion protein was expressed by adding isopropyl-β-d-thiogalactopyranoside (final concentration of 0.2 mM) and incubating the bacteria culture at 37 °C for 2 h. The cells were harvested by centrifugation and then lysed by sonication in 20 mM Tris-HCl, 250 mM KCl, and 10 mM MgCl2 pH 7.4; after the addition of Triton X-100 to a final concentration of 1% and incubation for 30 min at 4 °C, the lysates were centrifugated at 10,000× g for 15 min. The HSP70 protein was purified by affinity chromatography using His GraviTrap TALON columns (Euroclone, Milan, Italy). Briefly, after loading the lysate, the resin was washed twice with 20 mM Tris-HCl, 250 mM KCl, and 10 mM MgCl2 pH 7.4 and twice with the same buffer containing 10 mM of imidazole. The elution of the recombinant protein was obtained with 150 mM imidazole, pH 7.4. Imidazole was removed from the recombinant protein through overnight dialysis using a dialysis tubing membrane (Merck KGaA, Frankfurter Strasse 250 Darmstadt, Germany) and the protein was concentrated using a Centricon (Merck Millipore, 11 Avenida Norte Bis No. 513, San Salvador, El Salvador). The protein concentrations were determined using the Bradford assay (Bio-Rad Laboratories, Inc. Italy, Segrate) and the protein purity was monitored using SDS-PAGE.
The ATPase catalytic activity of recombinant human HSP70 was measured with a colorimetric assay using the malachite green reagent. Briefly, 6 µM of HSP70 protein was incubated for 30 min at 37 °C with 5 mM ATP in 20 mM Tris-HCl, 250 mM KCl, 10 mM MgCl2, and 0.02%TritonX-100, pH 7.4. The released phosphates were quantified by adding the malachite green reagent to an aliquot of this incubation and the absorbance was recorded at 620 nm using a Clariostar plate reader. The effects of thiazoles-based molecules on the ATPase catalytic activity were measured by adding (or not) the different molecules to the incubation (at 300 µM final concentration). To correct for non-enzymatic hydrolysis of ATP and for a specific absorbance of molecules, the absorbance signal of identically treated samples lacking the HSP70 protein was subtracted.

T2 sequence (P0DMV8 whole entry): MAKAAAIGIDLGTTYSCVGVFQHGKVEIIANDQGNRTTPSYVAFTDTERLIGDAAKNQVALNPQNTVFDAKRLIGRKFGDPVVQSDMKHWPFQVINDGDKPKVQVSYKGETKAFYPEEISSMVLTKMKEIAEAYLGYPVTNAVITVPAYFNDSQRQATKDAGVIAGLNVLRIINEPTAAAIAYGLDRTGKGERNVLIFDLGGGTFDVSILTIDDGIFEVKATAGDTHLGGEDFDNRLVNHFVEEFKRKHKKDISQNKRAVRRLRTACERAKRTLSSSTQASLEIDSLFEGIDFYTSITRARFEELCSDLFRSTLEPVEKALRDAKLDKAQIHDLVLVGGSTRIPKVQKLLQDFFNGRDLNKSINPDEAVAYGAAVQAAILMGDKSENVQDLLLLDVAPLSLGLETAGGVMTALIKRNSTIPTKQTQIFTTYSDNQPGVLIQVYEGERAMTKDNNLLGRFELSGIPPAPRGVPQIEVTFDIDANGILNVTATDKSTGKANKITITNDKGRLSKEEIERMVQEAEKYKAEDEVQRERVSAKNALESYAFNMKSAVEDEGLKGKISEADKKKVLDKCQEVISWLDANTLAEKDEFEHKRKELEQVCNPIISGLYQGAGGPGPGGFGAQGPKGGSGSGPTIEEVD

Row | Structure (SMILES) | inhibition at 300 µM
39 | CSc1cccc(Nc2nc(-c3nc4ccccc4s3)cs2)c1 [Compound 1a] | 49 ± 2%
40 | CCc1ccc(Nc2nc(-c3ccc(Cl)cc3)cs2)cc1SC [Compound 2a] | 40 ± 1%
41 | CSc1cccc(Nc2nc(-c3cccc(Cl)c3)cs2)c1 [Compound 3a] | 44 ± 4%
42 | CSc1cccc(Nc2nc(-c3ccc4c(c3)CC(=O)N4)cs2)c1 [Compound 4a] | 20 ± 1%
43 | CSc1cccc(Nc2nc(-c3ccc4[nH]c(=O)sc4c3)cs2)c1 [Compound 5a] | 19 ± 1%
44 | O=C1Cc2cc(-c3csc(Nc4cccc(SC(F)(F)F)c4)n3)ccc2N1 [Compound 6a] | 37 ± 1%
45 | CCn1c(=O)/c(=C2\Sc3ccccc3N2C)s/c1=C\c1ccccn1 [Compound 7a, YM-08] | 47 ± 1%

System: SIRT2 activity (acetylation status of α-tubulin)
Test: α-tubulin acetylation in cultured CFBE41o- cells (immunoblotting)
Type: cell-based, human
Details: 10 μM
Procedure: Finally, experiments were performed to determine whether compound 1a was active in intact cells. The acetylation status of α-tubulin, a known target of SIRT2 deacetylase activity, was used to monitor SIRT2 activity in human cells.
The cells were incubated with 10 μM of compound 1a or the respective amount of vehicle DMSO, and were used for protein lysate generation; then, the total and acetylated α-tubulin levels were detected by Immunoblotting. The levels of acetylated α-tubulin were quantified, normalized to the total α-tubulin, and expressed as percentage increase vs. vehicle-treated cells. One representative Western blot analysis and the mean ± SD of 3 quantifications are shown. **, p < 0.01.
The bronchial epithelial CFBE41o- cells were cultured as in [20]. […] The proteins were subsequently transferred to nitrocellulose membranes and the expression of the total or acetylated α-tubulin was detected using the following primary antibodies: anti-α-tubulin (rabbit polyclonal, #2125, Cell Signalling Technology, Danvers, MA, USA) and anti-acetylated α-tubulin (rabbit polyclonal, #5335, Cell Signalling Technology). Following incubation with the appropriate secondary antibodies and Amersham ECL detection (Cytiva, Milano, Italy), the band intensity was quantified using the ChemiDoc imaging system (Bio-Rad, Milan, Italy). α-tubulin acetylation was normalized to the total α-tubulin levels.

Row | Structure (SMILES) | α-tubulin acetylation (acetylated normalized to total α-tubulin, vs vehicle)
46 | CSc1cccc(Nc2nc(-c3nc4ccccc4s3)cs2)c1 [Compound 1a] | higher levels of the acetylated SIRT2 substrate; also recorded: increased α-tubulin acetylation

Molecular target: SIRT6 (Homo sapiens, UniProt Q8N6T7)
Test: SIRT6 deacetylase and depalmitoylase activity (H3K9Ac / H3K9Palm peptides)
Type: biochemical
Details: not given
Procedure: The synthesis of peptides H3K9Ac and H3K9Palm and the evaluation of the SIRT2 deacetylase activity and of the SIRT6 deacetylase and depalmitoylase activity were carried out as previously described. The IC50 of compound 1a was determined as in [43].

Chain of SIRT6 (Q8N6T7 whole entry): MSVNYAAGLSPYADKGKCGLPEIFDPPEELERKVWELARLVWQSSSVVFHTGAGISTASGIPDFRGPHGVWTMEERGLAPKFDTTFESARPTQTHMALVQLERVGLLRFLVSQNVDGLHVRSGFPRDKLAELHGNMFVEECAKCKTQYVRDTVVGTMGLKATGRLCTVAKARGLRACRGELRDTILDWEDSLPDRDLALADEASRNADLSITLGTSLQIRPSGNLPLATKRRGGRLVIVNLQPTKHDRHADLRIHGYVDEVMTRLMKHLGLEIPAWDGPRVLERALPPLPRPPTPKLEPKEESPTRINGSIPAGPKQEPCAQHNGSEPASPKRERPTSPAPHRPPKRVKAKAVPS

Row | Structure (SMILES) | effect on SIRT6 deacetylase activity | selectivity over SIRT6
47 | CSc1cccc(Nc2nc(-c3nc4ccccc4s3)cs2)c1 [Compound 1a] | did not significantly affect | selective over SIRT6

Same assay, conditions: palmitoylated peptide H3K9Palm

Row | Structure (SMILES) | effect on SIRT6 depalmitoylase activity
48 | CSc1cccc(Nc2nc(-c3nc4ccccc4s3)cs2)c1 [Compound 1a] | did not significantly affect
